What all share (assay): In vitro MIC, broth dilution
Common to all, as to assay type: cell-based

One experiment has as its system E. coli GC 4559. The note with it: Escherichia coli, GC4559.
In a further experiment the test system is E. coli GC 4560. As to conditions: Escherichia coli, GC4560.
A further experiment relates to E. coli GC 3226. The note with it: Escherichia coli, GC3226.
Another experiment relates to S. marcescens GC 4077. The note with it: Serratia marcescens, GC4077.
Another experiment has as its system C. albicans GC 3066. As to conditions: Candida albicans, GC3066.
A further experiment has as its system M. morganii GC 4531. As to conditions: Morganella morganii, GC4531.
The test system of a further experiment is K. pneumoniae GC 4534. The note with it: Klebsiella pneumoniae, GC4534.
The subject of the next experiment is E. cloacae GC 3783. As to conditions: Enterobacter cloacae, GC3783.
The test system of another experiment is P. aeruginosa GC 4532. The note with it: Pseudomonas aeruginosa, GC4532.
For the next experiment, the system named is CNS GC 4537. The procedure, abridged: (§1)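 Susceptibility testing used the NCCLS broth dilution method. Antibiotic spanned 64-0.06 μg/ml against an inoculum of 5×10^5 CFU/ml in Mueller-Hinton II; after 18 hours at 35° C the lowest concentration without growth gave the MIC.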
In another experiment the test system is CNS GC 4538. In a few lines:
as §1

A further experiment deals with CNS GC 4547. The procedure, abridged:
as §1

Another experiment relates to E. faecalis GC 2242. The note with it: Enterococcus faecalis, GC2242. In a few lines: as §1
For a further experiment, the system named is E. faecalis GC 4555. The note with it: Enterococcus faecalis, GC4555. The procedure, abridged: as §1
The next experiment concerns E. faecalis GC 842. The note with it: Enterococcus faecalis, GC842. The procedure, abridged:
as §1

The next experiment has as its system S. aureus GC 1131. As to conditions: Staphylococcus aureus, GC1131. The procedure, abridged:
as §1

The subject of a further experiment is S. aureus GC 2216. As to conditions: Staphylococcus aureus, GC2216. In a few lines: as §1
Another experiment relates to S. aureus GC 4536. The note with it: Staphylococcus aureus, GC4536. The procedure, abridged:
as §1

The subject of a further experiment is E. coli GC 2203. The note with it: Escherichia coli, GC2203.
The next experiment relates to P. aeruginosa GC 2214. The note with it: Pseudomonas aeruginosa, GC2214.

The structures appear in SMILES notation. Values after ≈ are worked out from the molar mass of the structure shown. Read-outs that look alike come from different tables or passages of the source. Where only a bound is given, the exact number is not on record here.

On to `COc1ccc(Cn2c(=O)ccn([C@@H]3OC([C@H](O)[C@H](NCCCNC(=O)CCCCCCCCCCNC(=O)OCC4c5ccccc5-c5ccccc54)C(=O)OC(C)(C)C)[C@@H](O[Si](C)(C)C(C)(C)C)[C@H]3O[Si](C)(C)C(C)(C)C)c2=O)cc1` (stereo partly drawn) [Example 24, tert-Butyl (21S)-21-[(R)-[(3R,4R,5R)-3,4-bis{[tert-butyl(dimethyl)silyl]oxy}-5-(3-(4-methoxybenzyl)-2,4-dioxo-3,4-dihydro-1(2H)-pyrimidinyl)tetrahydro-2-furanyl](hydroxy)methyl]-1-(9H-fluoren-9-yl)-3,15-dioxo-2-oxa-4,16,20-triazadocosan-22-oate], for which the MIC against E. coli GC 4559 was over 128 µg/mL; in the experiment with E. coli GC 4560 it was 128 µg/mL (≈ 108 µM); with E. coli GC 3226, over 128 µg/mL; against S. marcescens GC 4077 it was 128 µg/mL (≈ 108 µM); in the experiment with C. albicans GC 3066, 128 µg/mL (≈ 108 µM); in the experiment on M. morganii GC 4531 it was 128 µg/mL (≈ 108 µM). In addition, the MIC is over 128 µg/mL in the experiment with K. pneumoniae GC 4534; over 128 µg/mL with E. cloacae GC 3783; 128 µg/mL (≈ 108 µM) in the experiment on P. aeruginosa GC 4532; over 128 µg/mL in the experiment on CNS GC 4537; over 128 µg/mL in the experiment with CNS GC 4538; over 128 µg/mL in the experiment with CNS GC 4547. In addition, the MIC against E. faecalis GC 2242 is 128 µg/mL (≈ 108 µM); against E. faecalis GC 4555 it was over 128 µg/mL; in the experiment on E. faecalis GC 842, over 128 µg/mL; with S. aureus GC 1131 it was over 128 µg/mL; against S. aureus GC 2216, over 128 µg/mL; in the experiment with S. aureus GC 4536 it was over 128 µg/mL. Besides, the minimum inhibitory concentration (MIC) was over 128 µg/mL against E. coli GC 2203 and 128 µg/mL (≈ 108 µM) in the experiment with P. aeruginosa GC 2214.
As for `COc1ccc(Cn2c(=O)ccn([C@@H]3OC([C@H](O)[C@H](NCCCNC(=O)CCCCCCCCCCN)C(=O)OC(C)(C)C)[C@@H](O[Si](C)(C)C(C)(C)C)[C@H]3O[Si](C)(C)C(C)(C)C)c2=O)cc1` (stereo partly shown) [Example 25], the minimum inhibitory concentration (MIC) is over 128 µg/mL in the experiment on E. coli GC 4559 (E. coli GC 4559, read-out: MIC); 128 µg/mL (≈ 133 µM) in the experiment with E. coli GC 4560 (E. coli GC 4560, read-out: MIC); over 128 µg/mL with E. coli GC 3226 (E. coli GC 3226, read-out: MIC); 128 µg/mL (≈ 133 µM) in the experiment on S. marcescens GC 4077 (S. marcescens GC 4077, read-out: MIC); 128 µg/mL (≈ 133 µM) in the experiment with C. albicans GC 3066 (C. albicans GC 3066, read-out: MIC); 128 µg/mL (≈ 133 µM) in the experiment with M. morganii GC 4531 (M. morganii GC 4531, read-out: MIC). Also, the MIC is over 128 µg/mL with K. pneumoniae GC 4534 (K. pneumoniae GC 4534, read-out: MIC); over 128 µg/mL with E. cloacae GC 3783 (E. cloacae GC 3783, read-out: MIC); 128 µg/mL (≈ 133 µM) in the experiment with P. aeruginosa GC 4532 (P. aeruginosa GC 4532, read-out: MIC); 64 µg/mL (≈ 66.5 µM) with CNS GC 4537 (CNS GC 4537, read-out: MIC); 64 µg/mL (≈ 66.5 µM) in the experiment on CNS GC 4538 (CNS GC 4538, read-out: MIC); 128 µg/mL (≈ 133 µM) with CNS GC 4547 (CNS GC 4547, read-out: MIC). For the same compound, the MIC in the experiment with E. faecalis GC 2242 (E. faecalis GC 2242, read-out: MIC) came to 64 µg/mL (≈ 66.5 µM); with E. faecalis GC 4555 (E. faecalis GC 4555, read-out: MIC), 128 µg/mL (≈ 133 µM); in the experiment with E. faecalis GC 842 (E. faecalis GC 842, read-out: MIC) it was 128 µg/mL (≈ 133 µM); in the experiment on S. aureus GC 1131 (S. aureus GC 1131, read-out: MIC), 128 µg/mL (≈ 133 µM); in the experiment on S. aureus GC 2216 (S. aureus GC 2216, read-out: MIC), 128 µg/mL (≈ 133 µM); in the experiment on S. aureus GC 4536 (S. aureus GC 4536, read-out: MIC), 128 µg/mL (≈ 133 µM). The minimum inhibitory concentration (MIC) in the experiment on E. coli GC 2203 (E. coli GC 2203, read-out: MIC) was over 128 µg/mL; in the experiment on P. aeruginosa GC 2214 (P. aeruginosa GC 2214, read-out: MIC), 128 µg/mL (≈ 133 µM).
Turning to `COc1ccc(Cn2c(=O)ccn([C@@H]3OC([C@H](O)[C@H](NCCCNC(=O)[C@@H](NC(=O)[C@H](CCCNC(=N)N[N+](=O)O)NC(=O)N[C@H](C(=O)OCc4ccccc4)C(C)C)[C@@H](O)C(C)C)C(=O)OC(C)(C)C)[C@@H](O[Si](C)(C)C(C)(C)C)[C@H]3O[Si](C)(C)C(C)(C)C)c2=O)cc1` (stereo partly drawn) [Example 26, 1-Benzyl 17-(tert-butyl)(2S,6S,9S,16S)-16-[(R)-[(3R,4R,5R)-3,4-bis{[tert-butyl(dimethyl)silyl]oxy}-5-(3-(4-methoxybenzyl)-2,4-dioxo-3,4-dihydro-1(2H)-pyrimidinyl)tetrahydro-2-furanyl](hydroxy)methyl]-6-(3-{[(2,2-dioxido-2lambda˜1˜-diazanyl)(imino)methyl]amino}propyl)-9-[(1S)-1-hydroxy-2-methylpropyl]-2-isopropyl-4,7,10-trioxo-3,5,8,11,15-pentaazaheptadecane-1,17-dioate], the MIC with E. coli GC 4559, with E. coli GC 4560, in the experiment on E. coli GC 3226, in the experiment on S. marcescens GC 4077, against C. albicans GC 3066 and against M. morganii GC 4531 was over 128 µg/mL throughout. The MIC with K. pneumoniae GC 4534, in the experiment on E. cloacae GC 3783, in the experiment on P. aeruginosa GC 4532, in the experiment on CNS GC 4537, in the experiment on CNS GC 4538 and against CNS GC 4547 was over 128 µg/mL in each case. Also, the minimal inhibitory concentration (MIC) against E. faecalis GC 2242 is 128 µg/mL; in the experiment on E. faecalis GC 4555 it was over 128 µg/mL; against E. faecalis GC 842, over 128 µg/mL; in the experiment on S. aureus GC 1131 it was over 128 µg/mL; with S. aureus GC 2216, over 128 µg/mL; in the experiment with S. aureus GC 4536, over 128 µg/mL. The minimum inhibitory concentration (MIC) against E. coli GC 2203 is over 128 µg/mL; in the experiment on P. aeruginosa GC 2214 it was 128 µg/mL.
Take `COc1ccc(Cn2c(=O)ccn([C@@H]3OC([C@H](O)[C@H](NCCCNC(=O)[C@H](CC(C)C)NC(=O)[C@H](CCCNC(=N)N[N+](=O)O)NC(=O)N[C@H](C(=O)OCc4ccccc4)C(C)C)C(=O)OC(C)(C)C)[C@@H](O[Si](C)(C)C(C)(C)C)[C@H]3O[Si](C)(C)C(C)(C)C)c2=O)cc1` (stereo partly drawn) [Example 28, 1-Benzyl 17-(tert-butyl)(2S,6S,9S,16S)-16-[(R)-[(3R,4R,5R)-3,4-bis{[tert-butyl(dimethyl)silyl]oxy}-5-(3-(4-methoxybenzyl)-2,4-dioxo-3,4-dihydro-1(2H)-pyrimidinyl)tetrahydro-2-furanyl](hydroxy)methyl]-6-(3-{[(2,2-dioxido-2lambda˜1˜-diazanyl)(imino)methyl]amino}propyl)-9-isobutyl-2-isopropyl-4,7,10-trioxo-3,5,8,11,15-pentaazaheptadecane-1,17-dioate]: the MIC in the experiment on E. coli GC 4559, against E. coli GC 4560, in the experiment with E. coli GC 3226, against S. marcescens GC 4077, against C. albicans GC 3066 and against M. morganii GC 4531 was over 128 µg/mL throughout. For the same compound, the minimum inhibitory concentration (MIC) in the experiment on K. pneumoniae GC 4534, in the experiment on E. cloacae GC 3783, in the experiment with P. aeruginosa GC 4532, in the experiment with CNS GC 4537, with CNS GC 4538 and against CNS GC 4547 was over 128 µg/mL throughout. Also, the minimal inhibitory concentration (MIC) in the experiment with E. faecalis GC 2242, in the experiment with E. faecalis GC 4555, against E. faecalis GC 842, against S. aureus GC 1131, against S. aureus GC 2216 and in the experiment on S. aureus GC 4536 was over 128 µg/mL throughout. Moreover, the minimum inhibitory concentration (MIC) against E. coli GC 2203 and against P. aeruginosa GC 2214 was over 128 µg/mL throughout.
With `COc1ccc(Cn2c(=O)ccn([C@@H]3OC([C@H](O)[C@H](NCCCNC(=O)[C@H](CC(C)C)NC(=O)[C@H](CCCNC(=N)N)NC(=O)N[C@H](C(=O)O)C(C)C)C(=O)OC(C)(C)C)[C@@H](O[Si](C)(C)C(C)(C)C)[C@H]3O[Si](C)(C)C(C)(C)C)c2=O)cc1` (stereo partly drawn) [Example 29, (2S,6S,9S,16S)-6-(3-{[Amino(imino)methyl]amino}propyl)-16-[(R)-[(3R,4R,5R)-3,4-bis{[tert-butyl(dimethyl)silyl]oxy}-5-(3-(4-methoxybenzyl)-2,4-dioxo-3,4-dihydro-1(2H)-pyrimidinyl)tetrahydro-2-furanyl](hydroxy)methyl]-9-isobutyl-2-isopropyl-19,19-dimethyl-4,7,10,17-tetraoxo-18-oxa-3,5,8,11,15-pentaazaicosan-1-oic acid], the minimum inhibitory concentration (MIC) in the experiment with E. coli GC 4559 was over 128 µg/mL; in the experiment on E. coli GC 4560, 128 µg/mL (≈ 107 µM); against E. coli GC 3226, over 128 µg/mL; with S. marcescens GC 4077 it was 128 µg/mL (≈ 107 µM); with C. albicans GC 3066, over 128 µg/mL; in the experiment with M. morganii GC 4531, 128 µg/mL (≈ 107 µM). Also, the MIC was 128 µg/mL (≈ 107 µM) against K. pneumoniae GC 4534; 128 µg/mL (≈ 107 µM) in the experiment on E. cloacae GC 3783; 128 µg/mL (≈ 107 µM) in the experiment with P. aeruginosa GC 4532; over 128 µg/mL in the experiment with CNS GC 4537; over 128 µg/mL in the experiment on CNS GC 4538; over 128 µg/mL with CNS GC 4547. In addition, the MIC against E. faecalis GC 2242 is 128 µg/mL (≈ 107 µM); against E. faecalis GC 4555, over 128 µg/mL; in the experiment on E. faecalis GC 842 it was 128 µg/mL (≈ 107 µM); against S. aureus GC 1131 it was over 128 µg/mL; with S. aureus GC 2216 it was over 128 µg/mL; against S. aureus GC 4536, over 128 µg/mL. The MIC with E. coli GC 2203 is over 128 µg/mL; with P. aeruginosa GC 2214 it was 128 µg/mL (≈ 107 µM).

These data come from patent US6858591B2, “Antibiotic AA 896 analogs” (Wyeth Holdings Corporation, priority 2001, dated 2005).
